Measured values taken from US11419918B2, “Treatment of biliary cirrhosis based on oxyntomodulin analogue GLP-1R/GCGR dual-target agonist peptide” (Shenzhen Turier Biotech Co., Ltd., priority 2017, dated 2022).
Numbered stars: 1 amine (or outer) side, 2 acyl side, 3 side chain; on linkers, the order of the positions; unused ones are H or OH. Square brackets hold non-standard residues; d marks the D form. Primed or numbered codes have the meaning given here. Side chains are listed from the residue outwards. Ends that are not written are not given here. * marks the point of attachment. C18 diacid = O=C(O)CCCCCCCCCCCCCCCCC(=O)*; γGlu = O=C(O)[C@H](CCC(=O)[*:2])N[*:1]; Stearoyl = CCCCCCCCCCCCCCCCCC(=O)*; Palmitoyl = CCCCCCCCCCCCCCCC(=O)*; Nle = CCCC[C@H](N)C(=O)O; PEG2′ = not defined here; Aib = CC(C)(N)C(=O)O

System: human hepatic stellate cells (LX-2)
Experiment: In vitro inhibition of hepatic fibrosis: expression of activation marker α-SMA in LX-2 cells (Western Blot, β-actin internal reference)
Format: cell-based
Conditions: 10.0 μM, 48 hours, negative control (PBS) = 100%
Method: Hepatic stellate cell strain LX-2 was selected to study and observe the effect of different doses of test substances on the expression of LX-2 cell activation marker α-SMA. Hepatic stellate cell LX-2 was laid on 35 mm cell culture plate, cultured with DMEM (high glucose)+10% FBS+1% double-antibody culture medium (Thermo Fisher), placed overnight when the cells grew to 70% convergence at 37° C. and under the condition of 5% CO2, and treated with the above GLP-1R/GCGR dual target agonist polypeptides 1-48 (dissolved in PBS) for 48 hours the next day morning to extract cell protein, carry out Western Blot, and take β-actin as internal reference and analyze the expression quantities of α-SMA and β-actin by a gray level of Image J 1.50i. PBS with the same volume as that in experimental group was added in negative control. […] The integrating gray level of α-SMA/β-actin in the negative control group was 100% to analyze the in vitro inhibition activity of hepatic fibrosis of tested polypeptide.

Substance | Relative expression of α-SMA (α-SMA/β-actin, %) [%]
His-(D-Ser)-Gln-Gly-Thr-Phe-Thr-Ser-Asp-Lys(PEG2-PEG2-γGlu-CO(CH2)16CO2H)-Ser-Lys-Tyr-Leu-Asp-Aib-Arg-Arg-Ala-Gln-Asp-Phe-Val-Gln-Trp-Leu-Nle-Asn-Thr-Gly-Gly-Pro-Ser-Ser-Gly-Ala-Pro-Pro-Pro-Ser-NH2 (H[dS]QGTFTSDK([PEG2′-PEG2′-γGlu-C18 diacid])SKYLD[Aib]RRAQDFVQWL[Nle]NTGGPSSGAPPPS-NH2) [Compound 48] | 43.25
His-Aib-Gln-Gly-Thr-Phe-Thr-Ser-Asp-Lys(PEG2-PEG2-γGlu-CO(CH2)16CO2H)-Ser-Lys-Tyr-Leu-Asp-Glu-Arg-Arg-Ala-Gln-Asp-Phe-Val-Gln-Trp-Leu-Leu-Asp-Gly-Gly-Pro-Ser-Ser-Gly-Ala-Pro-Pro-Pro-Ser-NH2 (H[Aib]QGTFTSDK([PEG2′-PEG2′-γGlu-C18 diacid])SKYLDERRAQDFVQWLLDGGPSSGAPPPS-NH2) [Compound 15] | 57.29
His-(D-Ser)-Gln-Gly-Thr-Phe-Thr-Ser-Asp-Tyr-Ser-Lys-Tyr-Leu-Asp-Glu-Lys-Ala-Ala-Lys(PEG2-PEG2-γGlu-CO(CH2)16CH3)-Glu-Phe-Ile-Glu-Trp-Leu-Leu-Asn-Gly-Gly-Pro-Ser-Ser-Gly-Ala-Pro-Pro-Pro-Ser-NH2 (H[dS]QGTFTSDYSKYLDEKAAK([PEG2′-PEG2′-γGlu-Stearoyl])EFIEWLLNGGPSSGAPPPS-NH2) [Compound 28] | 37.62
His-(D-Ser)-Gln-Gly-Thr-Phe-Thr-Ser-Asp-Lys(PEG)-PEG2-γGlu-CO(CH2)14CH3)-Ser-Lys-Tyr-Leu-Asp-Aib-Arg-Arg-Ala-Gln-Asp-Phe-Val-Gln-Trp-Leu-Met-Asn-Thr-Gly-Gly-Pro-Ser-Ser-Gly-Ala-Pro-Pro-Pro-Ser-NH2 (H[dS]QGTFTSDKSKYLD[Aib]RRAQDFVQWLMNTGGPSSGAPPPS-NH2; not fully specified (residue 10); printed as His-(D-Ser)-Gln-Gly-Thr-Phe-Thr-Ser-Asp-Lys(PEG2-PEG2-γGln-CO(CH2)14CH3)-Ser-Lys-Tyr-Leu-Asp-Aib-Arg-Arg-Ala-Gln-Asp-Phe-Val-Gln-Trp-Leu-Met-Asn-Thr-Gly-Gly-Pro-Ser-Ser-Gly-Ala-Pro-Pro-Pro-Ser-NH2; also: first PEG unit on Lys10 of unstated size) [Compound 4] | 33.50
His-(D-Ser)-Gln-Gly-Thr-Phe-Thr-Ser-Asp-Tyr-Ser-Lys-Tyr-Leu-Asp-Ser-Lys(PEG2-PEG2-γGlu-CO(CH2)16CH3)-Ala-Ala-His-Asp-Phe-Val-Glu-Trp-Leu-Leu-Asn-Gly-Gly-Pro-Ser-Ser-Gly-Aln-Pro-Pro-Pro-Ser-NH2 (H[dS]QGTFTSDYSKYLDSK([PEG2′-PEG2′-γGlu-Stearoyl])AAHDFVEWLLNGGPSSGAPPPS-NH2; also: position 35: name writes Aln, letters give A) [Compound 22] | 40.56
His-Aib-Gln-Gly-Thr-Phe-Thr-Ser-Asp-Lys(PEG2-PEG2-γGlu-CO(CH2)14CH3)-Ser-Lys-Tyr-Leu-Asp-Glu-Arg-Arg-Ala-Gln-Asp-Phe-Val-Gln-Trp-Leu-Leu-Asp-Gly-Gly-Pro-Ser-Ser-Gly-Ala-Pro-Pro-Pro-Ser-NH2 (H[Aib]QGTFTSDK([PEG2′-PEG2′-γGlu-Palmitoyl])SKYLDERRAQDFVQWLLDGGPSSGAPPPS-NH2) [Compound 16] | 40.35
His-(D-Ser)-Gln-Gly-Thr-Phe-Thr-Ser-Asp-Lys(PEG)-PEG2-γGlu-CO(CH2)16CO2H)-Ser-Lys-Tyr-Leu-Asp-Aib-Arg-Arg-Ala-Gln-Asp-Phe-Val-Gln-Trp-Leu-Met-Asn-Thr-Gly-Gly-Pro-Ser-Ser-Gly-Ala-Pro-Pro-Pro-Ser-NH2 (H[dS]QGTFTSDKSKYLD[Aib]RRAQDFVQWLMNTGGPSSGAPPPS-NH2; not fully specified (residue 10); also: first PEG unit on Lys10 of unstated size) [Compound 5] | 36.04
